According to patent EP3892275A1, “AEROSOLIZATION OF HCQ OR ITS METABOLITES FOR THE TREATMENT OF LUNG INFECTIONS” (INSERM (Institut National de la Santé et de la Recherche …, priority 2020, dated 2021):

Columns and labels:
[1] = Behaviour in water (solubility, aggregation)
[2] = test system: COVID; settings: references 1,2; cited from earlier work
[3] = test system: lung; settings: aerosol delivery in animals; cited from earlier work

| Compound | aggregation when dissolved in water [1] | solubility in water [1] | antiviral activity in vitro at a cellular level [2] | anti-inflammatory effect on the lung [3] |
| --- | --- | --- | --- | --- |
| CCN(CCO)CCCC(C)Nc1ccnc2cc(Cl)ccc12.O=S(=O)(O)O (stereo not drawn) [HCQ, 2-[[4-[(7-Chloro-4-quinolyl)amino]pentyl]ethylamino] ethanol sulfate (1:1)] | do not aggregate | water-soluble | highly potent antiviral drug | rapid and potent anti-inflammatory effect on the lung |
| CC(CCCNCCO)Nc1ccnc2cc(Cl)ccc12 (stereo not drawn) [DHCQ, N-desethylhydroxychloroquine] | do not aggregate | water-soluble | – | – |
